Source: patent US20240261367A1, “CYCLIC PEPTIDE IMMUNOMODULATORS” (priority 2021, published 2024)
Starred links: 1 amine or outer side, 2 acyl side, 3 side chain; linkers in the order of their positions; H or OH if unused. Positions of bridges follow the written chain, without caps; N, C: chain ends. Non-standard residues stand in square brackets, D forms with d. Residues, ends and D or L forms follow the SMILES beside them. *: point of attachment. X2 = COC(=O)CCCCCCCCCCCCCCCCC(=O)N[C@@H](CCC(=O)NCCOCCOCCOCCOCCOCCOCCOCCOCCOCCOCCOCCn1cc(C[C@H](NC(=N)CNC(=O)[C@H](CSCC(=O)[*:1])NC(=N)[C@H](CC(C)C)N[*:2])C(=O)OC)nn1)C(=O)OC; X1 = COC(=O)CCCCCCCCCCCCCCCCC(=O)N[C@@H](CCC(=O)NCCOCCOCCOCCOCCOCCOCCOCCOCCOCCOCCOCCn1cc(C[C@H](NC(=N)CN*)C(=O)O)nn1)C(=O)O; Trp(1-CH2CO2Me) = COC(=O)Cn1cc(C[C@H](N)C(=O)O)c2ccccc21; Trp(1-CH2COOH) = N[C@@H](Cc1cn(CC(=O)O)c2ccccc12)C(=O)O; Hyp = O=C(O)[C@@H]1C[C@@H](O)CN1; NMeNle = CCCC[C@H](NC)C(=O)O; NMeA = CN[C@@H](C)C(=O)O; Dab = NCC[C@H](N)C(=O)O; Dap = NC[C@H](N)C(=O)O

Target: T1, PD-1/PD-L1 (Homo sapiens, UniProt Q9NZQ7)
T1 construct: TVMV protease site linker (C); made in house; host or cells: HEK293T cells
T1 sequence (Q9NZQ7 18-239): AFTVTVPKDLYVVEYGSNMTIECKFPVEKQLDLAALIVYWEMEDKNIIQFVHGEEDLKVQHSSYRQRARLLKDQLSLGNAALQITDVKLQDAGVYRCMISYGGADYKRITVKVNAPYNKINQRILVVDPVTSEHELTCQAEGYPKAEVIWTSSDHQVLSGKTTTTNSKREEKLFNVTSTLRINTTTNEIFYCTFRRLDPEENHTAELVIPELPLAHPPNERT
Test: PD-1/PD-L1 Homogenous Time-Resolved Fluorescence (HTRF) binding assay
Excerpt: Methods for Testing the Ability of Macrocyclic Peptides to Compete for the Binding of PD-1 to PD-L1 Using Homogenous Time-Resolved Fluorescence (HTRF) Binding Assays
The ability of the compounds of formula (I) to bind to PD-L1 was investigated using a PD-1/PD-L1 Homogenous Time-Resolved Fluorescence (HTRF) binding assay.
Homogenous Time-Resolved Fluorescence (HTRF) Binding Assay
The interaction of PD-1 and PD-L1 can be assessed using soluble, purified preparations of the extracellular domains of the two proteins. The PD-1 and PD-L1 protein extracellular domains were expressed as fusion proteins with detection tags, for PD-1, the tag was the Fc portion of Immunoglobulin (PD-1-Ig) and for PD-L1 it was the 6 histidine motif (PD-L1-His). All binding studies were performed in an HTRF assay buffer consisting of dPBS supplemented with 0.1% […] bovine serum albumin and 0.05% (v/v) Tween-20. […] HTRF detection was achieved using europium crypate-labeled anti-Ig (1 nM final) and allophycocyanin (APC) labeled anti-His (20 nM final). Antibodies were diluted in HTRF detection buffer and 5 μl was dispensed on top of the binding reaction. The reaction mixture was allowed to equilibrate for 30 minutes and the resulting signal (665 nm/620 nm ratio) was obtained using an EnVision fluorometer. Additional binding assays were established between the human proteins PD-1-Ig/PD-L2-His (20 & 5 nM, respectively) and CD80-His/PD-L1-Ig (100 & 10 nM, respectively).
Recombinant Proteins: Human PD-1 (25-167) with a C-terminal human Fc domain of immunoglobulin G (Ig) epitope tag [hPD-1 (25-167)-3S-IG] and human PD-L1 (18-239) with a C-terminal His epitope tag [hPD-L1(18-239)-TVMV-His] were expressed in HEK293T cells and purified sequentially by ProteinA affinity chromatography and size exclusion chromatography. Human PD-L2-His and CD80-His was obtained through commercial sources.
Table 1 lists the IC50 values for representative examples of this disclosure measured in the PD-1/PD-L1 Homogenous Time-Resolved Fluorescence (HTRF) binding assay.

[1] = PD-L1-His (10 nM) pre-incubated with inhibitor 15 m, then PD-1-Ig (20 nM)

SMILES	IC50 [1] [nM]	IC50 (10 min incubation) [nM]
C=C(CC[C@@H]1NC(=O)[C@H](Cc2c[nH]c3ccccc23)NC(=O)[C@@H]2C[C@@H](O)CN2C(=O)[C@H](CC(C)C)NC(=O)[C@H](CNC(=O)CC[C@@H](C)[C@H]2CC[C@H]3[C@@H]4[C@H](O)C[C@@H]5C[C@H](O)CC[C@]5(C)[C@H]4C[C@H](O)[C@]23C)NC(=O)[C@@H]2CCCN2C(=O)[C@H](CC(N)=O)NC(=O)[C@H](C)N(C)C(=O)[C@H](Cc2ccc(O)cc2)NC(=O)CSC[C@@H](C(=O)NCC(=O)N[C@@H](Cc2cn(CCOCCOCCOCCOCCOCCOCCOCCOCCOCCOCCOCCNC(=O)CC[C@H](NC(=O)CCCCCCCCCCCCCCCCC(=O)O)C(=O)O)nn2)C(=O)O)NC(=O)[C@H](CC(C)C)NC(=O)[C@H](CCCC)N(C)C(=O)[C@H](CCCC)N(C)C(=O)[C@H](Cc2cn(CC(=O)O)c3ccccc23)NC1=O)CC[C@@H](C)[C@H]1CC[C@H]2[C@@H]3[C@H](O)C[C@@H]4C[C@H](O)CC[C@]4(C)[C@H]3C[C@H](O)[C@]12C [Example 1004]	200	–
CCCC[C@H]1C(=O)N(C)[C@@H](CCCC)C(=O)N[C@@H](CC(C)C)C(=O)N[C@H](C(=O)NCC(=O)N[C@@H](Cc2cn(CCOCCOCCOCCOCCOCCOCCOCCOCCOCCOCCOCCNC(=O)CC[C@H](NC(=O)CCCCCCCCCCCCCCCCC(=O)OCC)C(=O)OC)nn2)C(=O)O)CSCC(=O)N[C@@H](Cc2ccc(O)cc2)C(=O)N(C)[C@@H](C)C(=O)N[C@@H](CC(N)=O)C(=O)N2CCC[C@H]2C(=O)N[C@@H](CN)C(=O)N[C@@H](CC(C)C)C(=O)N2C[C@H](O)C[C@H]2C(=O)N[C@@H](Cc2c[nH]c3ccccc23)C(=O)N[C@@H](CCN)C(=O)N[C@@H](Cc2cn(CC(=O)O)c3ccccc23)C(=O)N1C [Example 1005]	12	–
CCCC[C@H]1C(=O)N(C)[C@@H](CCCC)C(=O)N[C@@H](CC(C)C)C(=O)N[C@H](C(=O)NCC(=O)N[C@@H](Cc2cn(CCOCCOCCOCCOCCOCCOCCOCCOCCOCCOCCOCCNC(=O)CC[C@H](NC(=O)CCCCCCCCCCCCCCCCC(=O)O)C(=O)O)nn2)C(=O)O)CSCC(=O)N[C@@H](Cc2ccc(O)cc2)C(=O)N(C)[C@@H](C)C(=O)N[C@@H](CC(N)=O)C(=O)N2CCC[C@H]2C(=O)N[C@@H](CNC(=O)CC[C@@H](C)[C@H]2CC[C@H]3[C@@H]4[C@H](O)C[C@@H]5C[C@H](O)CC[C@]5(C)[C@H]4C[C@H](O)[C@]23C)C(=O)N[C@@H](CC(C)C)C(=O)N2C[C@H](O)C[C@H]2C(=O)N[C@@H](Cc2c[nH]c3ccccc23)C(=O)N[C@@H](CCN)C(=O)N[C@@H](Cc2cn(CC(=O)O)c3ccccc23)C(=O)N1C [Example 1006]	–	28
CCCC[C@H]1C(=O)N(C)[C@@H](CCCC)C(=O)N[C@@H](CC(C)C)C(=O)N[C@H](C(=O)NCC(=N)N[C@@H](Cc2cn(CCOCCOCCOCCOCCOCCOCCOCCOCCOCCOCCOCCNC(=O)CC[C@H](NC(=O)CCCCCCCCCCCCCCCCC(=O)OC)C(=O)O)nn2)C(=O)O)CSCC(=O)N[C@@H](Cc2ccc(O)cc2)C(=O)N(C)[C@@H](C)C(=O)N[C@@H](CC(N)=O)C(=O)N2CCC[C@H]2C(=O)N[C@@H](CN)C(=O)N[C@@H](CC(C)C)C(=O)N2C[C@H](O)C[C@H]2C(=O)N[C@@H](Cc2c[nH]c3ccccc23)C(=O)N[C@@H](CCN)C(=O)N[C@@H](Cc2cn(CC(=O)O)c3ccccc23)C(=O)N1C [Example 1007] ({CH2CO}-Y[NMeA]NP[Dap]L[Hyp]W[Dab][Trp(1-CH2COOH)][NMeNle][NMeNle]LC-X1; thioether N-14)	21	–
CCCC[C@H]1C(=O)N(C)[C@@H](CCCC)C(=O)N[C@@H](CC(C)C)C(=O)N[C@H](C(=O)NCC(=O)N[C@@H](Cc2cn(CCOCCOCCOCCOCCOCCOCCOCCOCCOCCOCCOCCNC(=O)CC[C@H](NC(=O)CCCCCCCCCCCCCCCCC(=O)O)C(=O)O)nn2)C(=O)O)CSCC(=O)N[C@@H](Cc2ccc(O)cc2)C(=O)N(C)[C@@H](C)C(=O)N[C@@H](CC(N)=O)C(=O)N2CCC[C@H]2C(=O)N[C@@H](CNC(=O)OCC)C(=O)N[C@@H](CC(C)C)C(=O)N2C[C@H](O)C[C@H]2C(=O)N[C@@H](Cc2c[nH]c3ccccc23)C(=O)N[C@@H](CCN)C(=O)N[C@@H](CC2=CC(CC(=O)O)c3ccccc32)C(=O)N1C (some centres unmarked) [Example 1009]	12	–

More lines, main results first:

IC50 [1] [nM]	SMILES	IC50 (10 min incubation) [nM]
7.3	CCCC[C@H]1C(=O)N(C)[C@@H](CCCC)C(=O)N[C@@H](CC(C)C)C(=N)N[C@H](C(=O)NCC(=N)N[C@@H](Cc2cn(CCOCCOCCOCCOCCOCCOCCOCCOCCOCCOCCOCCNC(=O)CC[C@H](NC(=O)CCCCCCCCCCCCCCCCC(=O)OC)C(=O)OC)nn2)C(=O)OC)CSCC(=O)NCC(=O)N(C)[C@@H](C)C(=O)N[C@@H](CC(N)=O)C(=O)N2CCC[C@H]2C(=O)N[C@@H](CN)C(=O)N[C@@H](CC(C)C)C(=O)N2C[C@H](O)C[C@H]2C(=O)N[C@@H](Cc2c[nH]c3ccccc23)C(=O)N[C@@H](CCN)C(=O)N[C@@H](Cc2cn(CC(=O)OC)c3ccccc23)C(=O)N1C [Example 1001] (G[NMeA]NP[Dap]L[Hyp]W[Dab][Trp(1-CH2CO2Me)][NMeNle][NMeNle]; linker N-C via X2)	–
6.5	CCCC[C@H]1C(=O)N(C)[C@@H](CCCC)C(=O)N[C@@H](CC(C)C)C(=O)N[C@H](C(=O)NCC(=O)N[C@@H](Cc2cn(CCOCCOCCOCCOCCOCCOCCOCCOCCOCCOCCOCCNC(=O)CC[C@H](NC(=O)CCCCCCCCCCCCCCCCC(=O)O)C(=O)O)nn2)C(=O)O)CSCC(=O)N[C@@H](Cc2ccc(O)cc2)C(=O)N(C)[C@@H](C)C(=O)N[C@@H](CC(N)=O)C(=O)N2CCC[C@H]2C(=O)N[C@@H](CNC(=O)OC(C)(C)C)C(=O)N[C@@H](CC(C)C)C(=O)N2C[C@H](O)C[C@H]2C(=O)N[C@@H](Cc2c[nH]c3ccccc23)C(=O)N[C@@H](CCNC(=O)OC(C)(C)C)C(=O)N[C@@H](Cc2cn(CC(=O)O)c3ccccc23)C(=O)N1C [Example 1002]	–
9.1	CCCC[C@H]1C(=O)N(C)[C@@H](CCCC)C(=O)N[C@@H](CC(C)C)C(=O)N[C@H](C(=O)NCC(=O)N[C@@H](Cc2cn(CCOCCOCCOCCOCCOCCOCCOCCOCCOCCOCCOCCNC(=O)CC[C@H](NC(=O)CCCCCCCCCCCCCCCCC(=O)O)C(=O)O)nn2)C(=O)O)CSCC(=O)N[C@@H](Cc2ccc(O)cc2)C(=O)N(C)[C@@H](C)C(=O)N[C@@H](CC(N)=O)C(=O)N2CCC[C@H]2C(=O)N[C@@H](CNC(=O)OC(C)C)C(=O)N[C@@H](CC(C)C)C(=O)N2C[C@H](O)C[C@H]2C(=O)N[C@@H](Cc2c[nH]c3ccccc23)C(=O)N[C@@H](CCN)C(=O)N[C@@H](Cc2cn(CC(=O)O)c3ccccc23)C(=O)N1C [Example 1003]	–
5.9	CCCC[C@H]1C(=O)N(C)[C@@H](CCCC)C(=O)N[C@@H](CC(C)C)C(=O)N[C@H](C(=O)NCC(=O)N[C@@H](Cc2cn(CCOCCOCCOCCOCCOCCOCCOCCOCCOCCOCCOCCNC(=O)CC[C@H](NC(=O)CCCCCCCCCCCCCCCCC(=O)O)C(=O)O)nn2)C(=O)O)CSCC(=O)N[C@@H](Cc2ccc(O)cc2)C(=O)N(C)[C@@H](C)C(=O)N[C@@H](CC(N)=O)C(=O)N2CCC[C@H]2C(=O)N[C@@H](CNC(=O)OCC)C(=O)N[C@@H](CC(C)C)C(=O)N2C[C@H](O)C[C@H]2C(=O)N[C@@H](Cc2c[nH]c3ccccc23)C(=O)N[C@@H](CCNC(=O)OCC)C(=O)N[C@@H](CC2=CC(CC(=O)O)c3ccccc32)C(=O)N1C (some centres unmarked) [Example 1008]	–
10	C#CCOC(=O)NC[C@@H]1NC(=O)[C@@H]2CCCN2C(=O)[C@H](CC(N)=O)NC(=O)[C@H](C)N(C)C(=O)[C@H](Cc2ccc(O)cc2)NC(=O)CSC[C@@H](C(=O)NCC(=O)N[C@@H](Cc2cn(CCOCCOCCOCCOCCOCCOCCOCCOCCOCCOCCOCCNC(=O)CC[C@H](NC(=O)CCCCCCCCCCCCCCCCC(=O)O)C(=O)O)nn2)C(=O)O)NC(=O)[C@H](CC(C)C)NC(=O)[C@H](CCCC)N(C)C(=O)[C@H](CCCC)N(C)C(=O)[C@H](CC2=CC(CC(=O)O)c3ccccc32)NC(=O)[C@H](CCN)NC(=O)[C@H](Cc2c[nH]c3ccccc23)NC(=O)[C@@H]2C[C@@H](O)CN2C(=O)[C@H](CC(C)C)NC1=O (some centres unmarked) [Example 1010]	–
11	CCCC[C@H]1C(=O)N(C)[C@@H](CCCC)C(=O)N[C@@H](CC(C)C)C(=O)N[C@H](C(=O)NCC(=O)N[C@@H](Cc2cn(CCOCCOCCOCCOCCOCCOCCOCCOCCOCCOCCOCCNC(=O)CC[C@H](NC(=O)CCCCCCCCCCCCCCCCC(=O)OC)C(=O)OC)nn2)C(=O)O)CSCC(=O)N[C@@H](Cc2ccc(O)cc2)C(=O)N(C)[C@@H](C)C(=O)N[C@@H](CC(N)=O)C(=O)N2CCC[C@H]2C(=O)N[C@@H](CN)C(=O)N[C@@H](CC(C)C)C(=O)N2C[C@H](O)C[C@H]2C(=O)N[C@@H](Cc2c[nH]c3ccccc23)C(=O)N[C@@H](CCN)C(=O)N[C@@H](CC2=CC(CC(=O)O)c3ccccc32)C(=O)N1C (some centres unmarked) [Example 1011]	–
